Test system: APTK-OVA tumors
Assay: adoptive transfer of UA-conditioned OT-1 T cells into mice bearing APTK-OVA tumors
Format: in vivo, Rag1^−/− mice
Excerpt: Adoptive cell transfer (ACT) represents the infusion of antigen-specific leukocytes with direct antitumor activity, yet identification, selection and expansion of lymphocyte subsets harboring optimal antitumor qualities remains one of the most crucial challenges (Rosenberg and Restifo, 2015). ACT benefits especially from minimally differentiated cells due to their improved survival and long-term potential to generate unexhausted effector cells (Luca Gattinoni et al; Mo et al., 2021; Roberto et al., 2015). In particular, CD8^+ T cells restricted in a stem-like state have been associated with enhanced tumor suppressive properties upon adoptive cell transfer (Enrico Lugli et al; Verma et al., 2021). […] The inventors cultured T cells from OT-1 donor mice (FIG. 3A) for 48 hours in the presence of UA or vehicle control, followed by adoptive transfer into immunodeficient Rag1^−/− mice. […] Moreover, consistent with an improved memory response, animals receiving UA-pretreated T cells contained less Tim3^HiPD1^Hi terminally exhausted CD8^+ T cells in the TME (FIG. 3I). Thus, UA augments immune-mediated antitumor memory upon adoptive cell transfer.
For adoptive cell transfer transfer, purified splenic T cell from OT1 mice were isolated and activated using aCD3/aCD28 stimulation beads for 48 h. After magnetic bead removal, 1×10^6 T of activated T cell were intravenously injected into Rag1^−/− recipients. To study survival of transferred T cells, stimulated OT-1 T cells were injected into mice without tumors. Subsequently, after 7 days, spleens were isolated and splenocytes were stained for the CD8^+ subsets as described below. To understand antitumor immunity conferred by transferred OT-1 lymphocytes, cells were injected into mice carrying APTK-OVA tumors 10 days after subcutaneous organoid transplantation. Tumor growth was assessed as described above. Mice were kept under regular chow food for the T cell adoptive transfer experiment and sacrificed collectively when maximum tumor diameter extended 1.5 cm.
Tumors were minced and digested with Tumor & Tissue Dissociation Reagent (BD Horizon) for 30 min. The remaining organ pieces were filtered through a 70 μm cell strainer. Cells were then washed with PBS 1% BSA and 2 mM EDTA. Immune cells were enriched on a 30%/40%/75% Percoll gradient after a 1700 rpm 17 min centrifugation. […]

[1] = UA-T cell transfer vs DMSO treated OT-I T cells

## O=c1oc2cc(O)ccc2c2ccc(O)cc12 [UA, Urolithin A]
[1]
  CD62L expression in CD8+ TIL: remained unchanged
  expression of CD44 in CD8+ TIL: lower expression
  number of TCF1Hi CD8+ tumor infiltrating T cells: higher number
UA-conditioned (25 μM, 48 h) vs control OT-I T cells
  tumor suppression (growth, final tumor weight): more substantial tumor suppression
UA-pretreated vs DMSO treated OT-I T cells
  Tim3HiPD1Hi terminally exhausted CD8+ T cells in the TME: less
